In patent US9340590B2 (priority 2011, dated 2016):
Read-outs that look alike come from different tables or passages of the source. Positions of bridges follow the written chain, without caps; N, C: chain ends. Non-standard residues stand in square brackets, D forms with d. Residues, ends and D or L forms follow the SMILES beside them. *: point of attachment. Phe(4-COOH) = N[C@@H](Cc1ccc(C(=O)O)cc1)C(=O)O; Pent4ynoyl = C#CCCC(=O)*; Abu = CC[C@H](N)C(=O)O

What was measured:
Assay in all cases: cell-based
hNav1.7 = hNav1.7 (Homo sapiens, UniProt Q15858); assay type: cell-based
hNav1.5 = hNav1.5 (Homo sapiens, UniProt Q14524)
hNav1.3 = hNav1.3 (Homo sapiens, UniProt Q9NY46); conditions: IonWorks Quattro, read-out: IWQ Use Nav1.3
[1] = IonWorks Quattro, Use, read-out: IWQ Use Nav1.7
[2] = IonWorks Quattro, use-dependent block, hNav1.7, read-out: IWQ Use Nav1.7
[3] = IonWorks Quattro, use-dependent block, hNav1.5, read-out: IWQ Use Nav1.5

Sequence of hNav1.5 (Q14524 whole entry, looked up): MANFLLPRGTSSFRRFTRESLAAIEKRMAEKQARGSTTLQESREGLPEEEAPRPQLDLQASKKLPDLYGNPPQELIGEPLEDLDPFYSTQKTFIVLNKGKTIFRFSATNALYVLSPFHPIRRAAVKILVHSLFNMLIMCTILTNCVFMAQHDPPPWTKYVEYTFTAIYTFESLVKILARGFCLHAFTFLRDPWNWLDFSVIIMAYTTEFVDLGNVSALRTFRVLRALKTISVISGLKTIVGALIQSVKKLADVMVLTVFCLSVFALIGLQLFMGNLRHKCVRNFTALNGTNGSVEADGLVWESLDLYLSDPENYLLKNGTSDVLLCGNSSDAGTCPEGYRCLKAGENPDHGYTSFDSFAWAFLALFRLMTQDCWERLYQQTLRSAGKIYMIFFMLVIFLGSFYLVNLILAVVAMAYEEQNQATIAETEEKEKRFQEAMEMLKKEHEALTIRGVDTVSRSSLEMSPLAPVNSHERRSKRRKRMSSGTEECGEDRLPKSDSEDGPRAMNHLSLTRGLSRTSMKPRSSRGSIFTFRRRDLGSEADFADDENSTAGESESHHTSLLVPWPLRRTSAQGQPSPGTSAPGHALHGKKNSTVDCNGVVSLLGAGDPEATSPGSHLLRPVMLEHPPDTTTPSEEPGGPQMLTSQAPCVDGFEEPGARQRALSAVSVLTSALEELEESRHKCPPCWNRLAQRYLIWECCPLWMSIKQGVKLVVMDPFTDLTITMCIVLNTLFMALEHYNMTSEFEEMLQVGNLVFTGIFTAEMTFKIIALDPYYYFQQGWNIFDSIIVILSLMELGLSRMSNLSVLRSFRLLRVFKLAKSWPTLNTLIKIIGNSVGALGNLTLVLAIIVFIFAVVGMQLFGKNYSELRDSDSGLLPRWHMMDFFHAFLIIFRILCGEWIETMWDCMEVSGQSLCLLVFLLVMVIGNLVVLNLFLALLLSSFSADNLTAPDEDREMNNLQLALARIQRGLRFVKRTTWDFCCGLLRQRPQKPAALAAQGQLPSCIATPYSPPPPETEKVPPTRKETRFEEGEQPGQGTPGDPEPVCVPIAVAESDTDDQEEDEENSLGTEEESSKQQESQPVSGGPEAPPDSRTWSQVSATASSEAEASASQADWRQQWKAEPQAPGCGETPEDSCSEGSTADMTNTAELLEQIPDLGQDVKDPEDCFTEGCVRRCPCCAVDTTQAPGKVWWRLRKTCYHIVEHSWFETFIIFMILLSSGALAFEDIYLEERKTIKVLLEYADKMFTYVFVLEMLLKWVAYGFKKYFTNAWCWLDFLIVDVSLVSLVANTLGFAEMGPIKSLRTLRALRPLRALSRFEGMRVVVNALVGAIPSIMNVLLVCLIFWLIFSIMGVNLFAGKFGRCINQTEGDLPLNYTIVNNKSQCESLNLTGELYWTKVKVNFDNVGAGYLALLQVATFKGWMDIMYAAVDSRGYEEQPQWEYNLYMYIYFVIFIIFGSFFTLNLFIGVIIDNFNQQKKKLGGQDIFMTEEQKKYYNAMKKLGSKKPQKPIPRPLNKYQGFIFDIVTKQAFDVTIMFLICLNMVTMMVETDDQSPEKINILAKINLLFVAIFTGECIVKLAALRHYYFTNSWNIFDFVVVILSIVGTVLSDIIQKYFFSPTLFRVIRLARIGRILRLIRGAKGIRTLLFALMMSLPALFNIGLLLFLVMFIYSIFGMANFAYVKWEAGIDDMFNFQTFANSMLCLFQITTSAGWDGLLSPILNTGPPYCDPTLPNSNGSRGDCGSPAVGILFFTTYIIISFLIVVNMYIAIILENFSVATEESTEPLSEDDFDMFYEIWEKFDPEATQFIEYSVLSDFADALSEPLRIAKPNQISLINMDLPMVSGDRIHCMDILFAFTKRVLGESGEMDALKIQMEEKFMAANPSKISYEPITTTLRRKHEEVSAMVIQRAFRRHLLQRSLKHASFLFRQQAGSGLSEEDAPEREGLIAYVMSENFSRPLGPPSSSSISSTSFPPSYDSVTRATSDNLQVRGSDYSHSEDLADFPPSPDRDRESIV
Sequence of hNav1.3 (Q9NY46 whole entry, looked up): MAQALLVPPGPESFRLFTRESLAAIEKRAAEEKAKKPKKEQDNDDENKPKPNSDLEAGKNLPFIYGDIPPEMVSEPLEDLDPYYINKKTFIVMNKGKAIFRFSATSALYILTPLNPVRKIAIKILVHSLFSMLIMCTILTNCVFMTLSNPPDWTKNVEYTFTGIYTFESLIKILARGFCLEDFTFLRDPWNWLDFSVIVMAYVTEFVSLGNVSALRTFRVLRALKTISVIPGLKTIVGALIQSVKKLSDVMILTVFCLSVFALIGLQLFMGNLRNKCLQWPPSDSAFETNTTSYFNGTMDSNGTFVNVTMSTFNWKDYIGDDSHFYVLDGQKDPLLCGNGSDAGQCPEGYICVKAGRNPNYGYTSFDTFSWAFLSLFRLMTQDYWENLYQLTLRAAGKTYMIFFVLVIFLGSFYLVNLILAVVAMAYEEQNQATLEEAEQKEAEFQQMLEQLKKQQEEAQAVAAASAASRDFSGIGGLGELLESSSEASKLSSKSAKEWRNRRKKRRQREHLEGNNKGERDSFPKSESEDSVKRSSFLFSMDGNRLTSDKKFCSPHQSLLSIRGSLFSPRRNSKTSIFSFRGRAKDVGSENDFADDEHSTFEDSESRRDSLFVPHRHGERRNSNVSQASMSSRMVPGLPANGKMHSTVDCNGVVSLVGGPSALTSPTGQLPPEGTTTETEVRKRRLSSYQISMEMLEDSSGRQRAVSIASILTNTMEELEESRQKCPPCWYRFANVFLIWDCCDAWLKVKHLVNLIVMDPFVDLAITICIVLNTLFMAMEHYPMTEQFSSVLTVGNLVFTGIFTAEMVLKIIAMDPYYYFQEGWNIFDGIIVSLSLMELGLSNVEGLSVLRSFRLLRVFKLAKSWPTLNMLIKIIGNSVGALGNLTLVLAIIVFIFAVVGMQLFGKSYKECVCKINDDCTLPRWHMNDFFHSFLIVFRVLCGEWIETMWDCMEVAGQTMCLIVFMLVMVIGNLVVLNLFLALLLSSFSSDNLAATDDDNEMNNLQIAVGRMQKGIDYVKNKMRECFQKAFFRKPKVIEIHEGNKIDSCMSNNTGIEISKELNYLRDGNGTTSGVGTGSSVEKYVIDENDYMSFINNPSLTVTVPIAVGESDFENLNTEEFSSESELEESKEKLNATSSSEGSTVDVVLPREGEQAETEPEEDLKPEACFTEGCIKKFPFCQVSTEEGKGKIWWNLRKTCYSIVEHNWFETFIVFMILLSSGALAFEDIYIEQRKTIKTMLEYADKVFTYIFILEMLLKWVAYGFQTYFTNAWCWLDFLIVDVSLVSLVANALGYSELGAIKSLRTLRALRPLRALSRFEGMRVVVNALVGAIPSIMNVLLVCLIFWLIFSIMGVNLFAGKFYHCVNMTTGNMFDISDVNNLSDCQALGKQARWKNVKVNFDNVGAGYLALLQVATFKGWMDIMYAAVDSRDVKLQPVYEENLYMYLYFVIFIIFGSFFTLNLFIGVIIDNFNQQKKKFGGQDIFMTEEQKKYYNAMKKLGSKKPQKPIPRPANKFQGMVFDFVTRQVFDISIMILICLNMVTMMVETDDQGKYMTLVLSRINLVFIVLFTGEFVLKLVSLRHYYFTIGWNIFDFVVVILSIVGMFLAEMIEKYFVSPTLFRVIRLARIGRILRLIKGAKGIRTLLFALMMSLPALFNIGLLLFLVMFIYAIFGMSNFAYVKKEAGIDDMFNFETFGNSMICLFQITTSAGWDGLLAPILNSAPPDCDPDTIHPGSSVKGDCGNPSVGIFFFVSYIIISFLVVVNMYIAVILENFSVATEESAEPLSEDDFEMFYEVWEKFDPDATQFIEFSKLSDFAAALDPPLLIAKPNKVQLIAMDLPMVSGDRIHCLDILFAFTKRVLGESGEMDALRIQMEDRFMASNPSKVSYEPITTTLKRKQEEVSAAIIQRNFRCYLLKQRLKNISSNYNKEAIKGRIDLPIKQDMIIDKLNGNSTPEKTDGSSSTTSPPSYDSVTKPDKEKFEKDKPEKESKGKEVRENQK

## CC[C@H](C)[C@@H]1NC(=O)[C@@H]2CSSC[C@@H]3NC(=O)[C@H](Cc4c[nH]cn4)NC(=O)[C@H](CC(C)C)NC(=O)[C@H](CC(N)=O)NC(=O)[C@@H]4CCCN4C(=O)[C@H](CCCNC(=N)N)NC(=O)[C@H](CSSC[C@H](NC(=O)[C@@H](N)CC(=O)O)C(=O)N[C@@H](CC(C)C)C(=O)NCC(=O)N[C@@H](Cc4ccccc4)C(=O)N[C@@H](CCSC)C(=O)N[C@@H](CCCNC(=N)N)C(=O)N[C@@H](CCCCN)C(=O)N2)NC(=O)[C@H](CSSC[C@@H](C(=O)N[C@@H](CCCCN)C(=O)N[C@@H](Cc2ccc(O)cc2)C(=O)N[C@H](C(=O)N[C@@H](Cc2ccccc2)C(N)=O)C(C)C)NC(=O)[C@H](Cc2c[nH]c4ccccc24)NC(=O)[C@H](CCCCN)NC(=O)[C@H](Cc2c[nH]cn2)NC(=O)[C@H]([C@@H](C)O)NC(=O)[C@H](CCCNC(=N)N)NC(=O)[C@H](CO)NC3=O)NC(=O)[C@H](CCCCN)NC(=O)[C@H](CC(=O)O)NC(=O)[C@H](CC(N)=O)NC(=O)[C@H](CC(=O)O)NC(=O)[C@@H]2CCCN2C1=O [compound 326] (H-DCLGFMRKCIPDNDKCCRPNLHCSRTHKWCKYVF-NH2; disulfide 2-17, 9-23, 16-30)
hNav1.7; [1]
  IC50: 0.41 µM
hNav1.5; IonWorks Quattro, Use, read-out: IWQ Use Nav1.5
  IC50: 15.6 µM
hNav1.3; Use
  IC50: 0.1 µM

## C#CCCC(=O)N[C@@H](CC(=O)O)C(=O)N[C@H]1CSSC[C@@H]2NC(=O)[C@@H]3CSSC[C@@H](C(=O)N[C@@H](CCCCN)C(=O)N[C@@H](Cc4ccc(O)cc4)C(=O)N[C@H](C(=O)N[C@@H](Cc4ccccc4)C(N)=O)C(C)C)NC(=O)[C@H](Cc4c[nH]c5ccccc45)NC(=O)[C@H](CCCCN)NC(=O)[C@H](Cc4c[nH]cn4)NC(=O)[C@H]([C@@H](C)O)NC(=O)[C@H](CCCNC(=N)N)NC(=O)[C@H](CO)NC(=O)[C@H](CSSC[C@H](NC(=O)[C@H](CCCCN)NC(=O)[C@H](CCCNC(=N)N)NC(=O)[C@H](Cc4ccccc4)NC(=O)[C@H](C)NC(=O)CNC(=O)[C@H](CC(C)C)NC1=O)C(=O)N[C@@H]([C@@H](C)CC)C(=O)N1CCC[C@H]1C(=O)N[C@@H](CC(=O)O)C(=O)N[C@@H](CC)C(=O)N[C@@H](CC(=O)O)C(=O)N[C@@H](CCCCN)C(=O)N3)NC(=O)[C@H](C(C)C)NC(=O)[C@H](CC(C)C)NC(=O)[C@H](CC(N)=O)NC(=O)[C@@H]1CCCN1C(=O)[C@H](CCCNC(=N)N)NC2=O [compound 757] (Pent4ynoyl-DCLGAFRKCIPD[Abu]DKCCRPNLVCSRTHKWCKYVF-NH2; disulfide 2-17, 9-23, 16-30)
hNav1.7; [2]
  IC50: 0.71 µM
hNav1.5; [3]
  IC50: 34.9 µM
hNav1.3; use-dependent block, hNav1.3
  IC50: 0.28 µM

## CC[C@H](C)[C@@H]1NC(=O)[C@@H]2CSSC[C@@H]3NC(=O)[C@H](C(C)C)NC(=O)[C@H](CC(C)C)NC(=O)[C@H](CC(N)=O)NC(=O)[C@@H]4CCCN4C(=O)[C@H](CCCNC(=N)N)NC(=O)[C@H](CSSC[C@H](NC(=O)[C@@H](N)CC(=O)O)C(=O)N[C@@H](CC(C)C)C(=O)NCC(=O)N[C@@H](C)C(=O)N[C@@H](Cc4ccccc4)C(=O)N[C@@H](CCCNC(=N)N)C(=O)N[C@@H](CCCCN)C(=O)N2)NC(=O)[C@H](CSSC[C@@H](C(=O)N[C@@H](CCCCN)C(=O)N[C@@H](Cc2ccc(O)cc2)C(=O)N[C@H](C(=O)N[C@@H](Cc2ccccc2)C(=O)O)C(C)C)NC(=O)[C@H](Cc2c[nH]c4ccccc24)NC(=O)[C@H](CCCNC(=N)N)NC(=O)[C@H](Cc2c[nH]cn2)NC(=O)[C@H]([C@@H](C)O)NC(=O)[C@H](CCCNC(=N)N)NC(=O)[C@H](CO)NC3=O)NC(=O)[C@H](CCCCN)NC(=O)[C@H](CC(=O)O)NC(=O)CNC(=O)[C@H](CC(=O)O)NC(=O)[C@@H]2CCCN2C1=O [compound 840]
hNav1.7; [2]
  IC50: > 5 µM
hNav1.5; [3]
  IC50: > 5 µM
hNav1.3; use-dependent block, hNav1.3
  IC50: 1.5 µM

## CC[C@H](C)[C@@H]1NC(=O)[C@@H]2CSSC[C@@H]3NC(=O)[C@H](Cc4ccccc4)NC(=O)[C@H](CC(C)C)NC(=O)[C@H](CC(N)=O)NC(=O)[C@@H]4CCCN4C(=O)[C@H](CCCNC(=N)N)NC(=O)[C@H](CSSC[C@H](NC(=O)[C@@H](N)CC(=O)O)C(=O)N[C@@H](CC(C)C)C(=O)NCC(=O)N[C@@H](Cc4ccccc4)C(=O)N[C@@H](CCSC)C(=O)N[C@@H](CCCNC(=N)N)C(=O)N[C@@H](CCCCN)C(=O)N2)NC(=O)[C@H](CSSC[C@@H](C(=O)N[C@@H](CCCCN)C(=O)N[C@@H](Cc2ccc(O)cc2)C(=O)N[C@H](C(=O)N[C@@H](Cc2ccccc2)C(N)=O)C(C)C)NC(=O)[C@H](Cc2c[nH]c4ccccc24)NC(=O)[C@H](CCCCN)NC(=O)[C@H](Cc2c[nH]cn2)NC(=O)[C@H]([C@@H](C)O)NC(=O)[C@H](CCCNC(=N)N)NC(=O)[C@H](CO)NC3=O)NC(=O)[C@H](CCCCN)NC(=O)[C@H](CC(=O)O)NC(=O)[C@H](CC(N)=O)NC(=O)[C@H](CC(=O)O)NC(=O)[C@@H]2CCCN2C1=O [compound 319] (H-DCLGFMRKCIPDNDKCCRPNLFCSRTHKWCKYVF-NH2; disulfide 2-17, 9-23, 16-30)
hNav1.7; [1]
  IC50: 0.7 µM
hNav1.5; IWQ Use Nav1.5 (μM)
  IC50: > 5 µM
hNav1.3; Use
  IC50: 1.02 µM

## CC[C@H](C)[C@@H]1NC(=O)[C@@H]2CSSC[C@@H]3NC(=O)[C@H](C(C)C)NC(=O)[C@H](CC(C)C)NC(=O)[C@H](CC(N)=O)NC(=O)[C@@H]4CCCN4C(=O)[C@H](CCCNC(=N)N)NC(=O)[C@H](CSSC[C@H](NC(=O)[C@@H](N)CC(=O)O)C(=O)N[C@@H](CC(C)C)C(=O)NCC(=O)N[C@@H](C)C(=O)N[C@@H](CC(C)C)C(=O)N[C@@H](CCCNC(=N)N)C(=O)N[C@@H](CCCCN)C(=O)N2)NC(=O)[C@H](CSSC[C@@H](C(=O)N[C@@H](CCCCN)C(=O)N[C@@H](Cc2ccc(O)cc2)C(=O)N[C@H](C(=O)N[C@@H](Cc2ccccc2)C(=O)O)C(C)C)NC(=O)[C@H](Cc2c[nH]c4ccccc24)NC(=O)[C@H](CC(C)C)NC(=O)[C@H](Cc2c[nH]cn2)NC(=O)[C@H]([C@@H](C)O)NC(=O)[C@H](CCCNC(=N)N)NC(=O)[C@H](CO)NC3=O)NC(=O)[C@H](CCCCN)NC(=O)[C@H](CC(=O)O)NC(=O)[C@H](CC(N)=O)NC(=O)[C@H](CC(=O)O)NC(=O)[C@@H]2CCCN2C1=O [compound 856] (H-DCLGALRKCIPDNDKCCRPNLVCSRTHLWCKYVF-OH; disulfide 2-17, 9-23, 16-30)
hNav1.7; [2]
  IC50: 4.1 µM
hNav1.5; [3]
  IC50: > 5 µM
hNav1.3; use-dependent block, hNav1.3
  IC50: 4.1 µM

## CC[C@H](C)[C@@H]1NC(=O)[C@@H]2CSSC[C@@H]3NC(=O)[C@H](C(C)C)NC(=O)[C@H](CC(C)C)NC(=O)[C@H](CC(N)=O)NC(=O)[C@@H]4CCCN4C(=O)[C@H](CCCNC(=N)N)NC(=O)[C@H](CSSC[C@H](NC(=O)[C@@H](N)CC(=O)O)C(=O)N[C@@H](CC(C)C)C(=O)NCC(=O)N[C@@H](Cc4ccccc4)C(=O)N[C@@H](CCSC)C(=O)N[C@@H](CCCNC(=N)N)C(=O)N[C@@H](CCCCN)C(=O)N2)NC(=O)[C@H](CSSC[C@@H](C(=O)N[C@@H](CCCCN)C(=O)N[C@@H](Cc2ccc(C(=O)O)cc2)C(=O)N[C@H](C(=O)N[C@@H](Cc2ccccc2)C(N)=O)C(C)C)NC(=O)[C@H](Cc2c[nH]c4ccccc24)NC(=O)[C@H](CCCCN)NC(=O)[C@H](Cc2c[nH]cn2)NC(=O)[C@H]([C@@H](C)O)NC(=O)[C@H](CCCNC(=N)N)NC(=O)[C@H](CO)NC3=O)NC(=O)[C@H](CCCCN)NC(=O)[C@H](CC(=O)O)NC(=O)[C@H](CC(N)=O)NC(=O)[C@H](CC(=O)O)NC(=O)[C@@H]2CCCN2C1=O [compound 385] (H-DCLGFMRKCIPDNDKCCRPNLVCSRTHKWCK[Phe(4-COOH)]VF-NH2; disulfide 2-17, 9-23, 16-30)
hNav1.7; Table 25, IonWorks Quattro, use, […], read-out: IWQ Use Nav1.7
  IC50: 11.4 µM
hNav1.5; Table 25, IonWorks Quattro, use, […], read-out: IWQ Use Nav1.5
  IC50: 7.7 µM
hNav1.3; Table 25, use, […]
  IC50: 4.05 µM

## CC[C@H](C)[C@@H]1NC(=O)[C@@H]2CSSC[C@@H]3NC(=O)[C@H](C(C)C)NC(=O)[C@H](CC(C)C)NC(=O)[C@H](CC(N)=O)NC(=O)[C@@H]4CCCN4C(=O)[C@H](CCCNC(=N)N)NC(=O)[C@H](CSSC[C@H](NC(=O)[C@@H](N)CC(=O)O)C(=O)N[C@@H](CC(C)C)C(=O)NCC(=O)N[C@@H](C)C(=O)N[C@@H](Cc4c[nH]c5ccccc45)C(=O)N[C@@H](CCCNC(=N)N)C(=O)N[C@@H](CCCCN)C(=O)N2)NC(=O)[C@H](CSSC[C@@H](C(=O)N[C@@H](CCCCN)C(=O)N[C@@H](Cc2ccc(O)cc2)C(=O)N[C@H](C(=O)N[C@@H](Cc2ccccc2)C(N)=O)C(C)C)NC(=O)[C@H](Cc2c[nH]c4ccccc24)NC(=O)[C@H](CCCCN)NC(=O)[C@H](Cc2cnc[nH]2)NC(=O)[C@H]([C@@H](C)O)NC(=O)[C@H](CCCNC(=N)N)NC(=O)[C@H](CO)NC3=O)NC(=O)[C@H](CCCCN)NC(=O)[C@H](CC(=O)O)NC(=O)[C@H](CC(N)=O)NC(=O)[C@H](CC(=O)O)NC(=O)[C@@H]2CCCN2C1=O [compound 261] (H-DCLGAWRKCIPDNDKCCRPNLVCSRTHKWCKYVF-NH2; disulfide 2-17, 9-23, 16-30)
hNav1.7
  IC50: 1.01 µM
hNav1.5; [3]
  IC50: 5 µM
hNav1.3; use-dependent block, hNav1.3
  IC50: 0.67 µM

## CC[C@H](C)[C@@H]1NC(=O)[C@@H]2CSSC[C@@H]3NC(=O)[C@H](C(C)C)NC(=O)[C@H](CC(C)C)NC(=O)[C@H](CC(N)=O)NC(=O)[C@@H]4CCCN4C(=O)[C@H](CCCNC(=N)N)NC(=O)[C@H](CSSC[C@H](NC(=O)[C@@H](N)CC(=O)O)C(=O)N[C@@H](CC(C)C)C(=O)NCC(=O)N[C@@H](C)C(=O)N[C@@H](CCSC)C(=O)N[C@@H](CCCNC(=N)N)C(=O)N[C@@H](CCCCN)C(=O)N2)NC(=O)[C@H](CSSC[C@@H](C(=O)N[C@@H](CCCCN)C(=O)N[C@@H](C)C(=O)N[C@H](C(=O)N[C@@H](Cc2ccccc2)C(N)=O)C(C)C)NC(=O)[C@H](Cc2c[nH]c4ccccc24)NC(=O)[C@H](CCCCN)NC(=O)[C@H](Cc2c[nH]cn2)NC(=O)[C@H]([C@@H](C)O)NC(=O)[C@H](CCCNC(=N)N)NC(=O)[C@H](CO)NC3=O)NC(=O)[C@H](CCCCN)NC(=O)[C@H](CC(=O)O)NC(=O)[C@H](CC(N)=O)NC(=O)[C@H](CC(=O)O)NC(=O)[C@@H]2CCCN2C1=O [compound 432] (H-DCLGAMRKCIPDNDKCCRPNLVCSRTHKWCKAVF-NH2; disulfide 2-17, 9-23, 16-30)
hNav1.7; [2]
  IC50: > 5 µM
hNav1.5; [3]
  IC50: > 5 µM
hNav1.3; use-dependent block, hNav1.3
  IC50: > 5 µM
